Data on 26 compounds can be found in patent US20090030024A1, “THIAZOLES AS FUNGICIDES” (priority 2005, published 2009).

A short description of one series: logP determination by retention times (calibration with alkan-2-ones). The note with it: logP, * HPLC reversed-phase C18, 40° C., mobile phase 0.1% aqueous formic acid and acetonitrile, linear gradient 10% to 95% acetonitrile.
The term chromatographic logP denotes lipophilicity estimated from chromatographic retention. Low values mean lower lipophilicity, high ones higher lipophilicity. `Clc1ccc(-c2ncc(-c3ccnc(Nc4ccccc4)n3)s2)cc1` [Example 793, 4-[2-(4-chlorophenyl)-1,3-thiazol-5-yl]-N-phenylpyrimidine-2-amine] returned a chromatographic logP of 4.85. Take `CCc1nc(C)c(-c2ccnc(Nc3ccc(Cl)cc3Cl)n2)s1` [Example 794, N-(2,4-dichlorophenyl)-4-(2-ethyl-4-methyl-1,3-thiazol-5-yl)pyrimidine-2-amine]: the chromatographic logP is 4.9. The compound `Clc1ccc(-c2ncc(-c3ccnc(Nc4cccc(Cl)c4)n3)s2)cc1` [Example 795, N-(3-chlorophenyl)-4-[2-(4-chlorophenyl)-1,3-thiazol-5-yl]pyrimidine-2-amine] came in with a chromatographic logP of 5.57. `CCOC(=O)Nc1ccc(Nc2nccc(-c3sc(C(C)C)nc3C)n2)cc1` [Example 796, ethyl-(4-{[4-(2-isopropyl-4-methyl-1,3-thiazol-5-yl)pyrimidin-2-yl]amino}phenyl)carbamate]: the chromatographic logP is 2.18. The compound `COCCNc1nc(C)c(-c2ccnc(Nc3ccc(OC)c(OC)c3)n2)s1` [Example 800, N-(3,4-dimethoxyphenyl)-4-{2-[(2-methoxyethyl)amino]-4-methyl-1,3-thiazol-5-yl}pyrimidine-2-amine] registered a chromatographic logP of 1.55. As to `COCCNc1nc(C)c(-c2ccnc(Nc3cc(OC)cc(OC)c3)n2)s1` [Example 801, N-(3,5-dimethoxyphenyl)-4-{2-[(2-methoxyethyl)amino]-4-methyl-1,3-thiazol-5-yl}pyrimidine-2-amine], the chromatographic logP stood at 1.96.

The compound `COCCNc1nc(C)c(-c2ccnc(Nc3ccc4c(c3)OCO4)n2)s1` [Example 802, N-1,3-benzodioxol-5-yl-4-{2-[(2-methoxyethyl)amino]-4-methyl-1,3-thiazol-5-yl}pyrimidine-2-amine] gave a chromatographic logP of 1.65. As to `COCCNc1nc(C)c(-c2ccnc(Nc3ccc4c(c3)OCCO4)n2)s1` [Example 803, N-(2,3-dihydro-1,4-benzodioxin-6-yl)-4-{2-[(2-methoxyethyl)amino]-4-methyl-1,3-thiazol-5-yl}pyrimidine-2-amine], the chromatographic logP came out at 1.63. `COCCNc1nc(C)c(-c2ccnc(Nc3ccc(OC)c(Cl)c3)n2)s1` [Example 804, N-(3-chloro-4-methoxyphenyl)-4-{2-[(2-methoxyethyl)amino]-4-methyl-1,3-thiazol-5-yl}pyrimidine-2-amine] yielded a chromatographic logP of 1.96. Compound `COCCNc1nc(C)c(-c2ccnc(Nc3ccc(N(C)C)c(Cl)c3)n2)s1` [Example 805, 2-chloro-N4-(4-{2-[(2-methoxyethyl)amino]-4-methyl-1,3-thiazol-5-yl}pyrimidin-2-yl)-N1,N1-dimethylbenzene-1,4-diamine] had a chromatographic logP of 1.57. Regarding `COCCNc1nc(C)c(-c2ccnc(Nc3ccc(C)c([N+](=O)[O-])c3)n2)s1` [Example 806, 4-{2-[(2-methoxyethyl)amino]-4-methyl-1,3-thiazol-5-yl}-N-(4-methyl-3-nitrophenyl)pyrimidine-2-amine], the chromatographic logP came to 2.17. The compound `COCCNc1nc(C)c(-c2ccnc(Nc3ccc(C#N)cc3)n2)s1` [Example 807, 4-[(4-{2-[(2-methoxyethyl)amino]-4-methyl-1,3-thiazol-5-yl}pyrimidin-2-yl)amino]benzonitrile] had a chromatographic logP of 1.9.

Staying with this series, now noted: logP, values marked *: HPLC on reversed-phase C 18, 40° C., mobile phase 0.1% aqueous formic acid and acetonitrile, linear gradient 10% to 95% acetonitrile.
Consider `COCCNc1nc(C)c(-c2ccnc(Nc3ccc(O)cc3)n2)s1` [Example 808, 4-[(4-{2-[(2-methoxyethyl)amino]-4-methyl-1,3-thiazol-5-yl}pyrimidin-2-yl)amino]phenol], for which the chromatographic logP turned out to be 1.22. In turn, `Cc1nc(NCC2CCCO2)sc1-c1ccnc(Nc2ccc(F)cc2F)n1` (centres unmarked) [Example 809, N-(2,4-difluorophenyl)-4-{4-methyl-2-[(tetrahydrofuran-2-ylmethyl)amino]-1,3-thiazol-5-yl}pyrimidine-2-amine] gave a chromatographic logP of 2.09. For the compound `Cc1ccc(Nc2nccc(-c3sc(NCC4CCCO4)nc3C)n2)cc1[N+](=O)[O-]` (centres unmarked) [Example 810, N-(4-methyl-3-nitrophenyl)-4-{4-methyl-2-[(tetrahydrofuran-2-ylmethyl)amino]-1,3-thiazol-5-yl}pyrimidine-2-amine], the chromatographic logP came to 2.33. Same read-out and setting: for `CC(=O)c1ccc(Nc2nccc(-c3sc(NCC4CCCO4)nc3C)n2)cc1` (centres unmarked) [Example 816, 1-{4-[(4-{4-methyl-2-[(tetrahydrofuran-2-ylmethyl)amino]-1,3-thiazol-5-yl}pyrimidin-2-yl)amino]phenyl}ethanone] the value was 1.83; for `COc1ccc(Nc2nccc(-c3sc(NCC4CCCO4)nc3C)n2)cc1OC` (centres unmarked) [Example 817, N-(3,4-dimethoxyphenyl)-4-{4-methyl-2-[(tetrahydrofuran-2-ylmethyl)amino]-1,3-thiazol-5-yl}pyrimidine-2-amine], 1.65. As to `CC(=O)Nc1cccc(Nc2nccc(-c3sc(C(C)C)nc3C)n2)c1` [Example 818, N-(3-{[4-(2-isopropyl-4-methyl-1,3-thiazol-5-yl)pyrimidin-2-yl]amino}phenyl)acetamide], the chromatographic logP was 2.26. Compound `COc1ccc(Nc2nccc(-c3sc(C(C)C)nc3C)n2)cc1OC` [Example 819, N-(3,4-dimethoxyphenyl)-4-(2-isopropyl-4-methyl-1,3-thiazol-5-yl)pyrimidine-2-amine] came in with a chromatographic logP of 2.85. On the same count and under the same terms, for `CC(=O)c1ccc(Nc2nccc(-c3sc(C(C)C)nc3C)n2)cc1` [Example 820, 1-(4-{[4-(2-isopropyl-4-methyl-1,3-thiazol-5-yl)pyrimidin-2-yl]amino}phenyl)ethanone] the value was 3.06; for `COc1ccc(Nc2nccc(-c3sc(C(C)C)nc3C)n2)cc1` [Example 821, 4-(2-isopropyl-4-methyl-1,3-thiazol-5-yl)-N-(4-methoxyphenyl)pyrimidine-2-amine], 3.25. The compound `Cc1nc(C(C)C)sc1-c1ccnc(Nc2ccc(N3CCCC3=O)cc2)n1` [Example 831, 1-(4-{[4-(2-isopropyl-4-methyl-1,3-thiazol-5-yl)pyrimidin-2-yl]amino}phenyl)pyrrolidin-2-one] showed a chromatographic logP of 2.56. `COCCNc1nc(C)c(-c2ccnc(Nc3ccc(F)cc3F)n2)s1` [Example 832, N-(2,4-difluorophenyl)-4-{2-[(2-methoxyethyl)amino]-4-methyl-1,3-thiazol-5-yl}pyrimidine-2-amine]: the chromatographic logP was 1.99. `CCc1nc(C)c(-c2ccnc(Nc3ccc(F)c(N4CCN(C(C)=O)CC4)c3)n2)s1` [Example 848, N-[3-(4-acetylpiperazin-1-yl)-4-fluorophenyl]-4-(2-ethyl-4-methyl-1,3-thiazol-5-yl)pyrimidine-2-amine] came in with a chromatographic logP of 2.42.

The series is the same for the next values; noted with them: values marked *: HPLC on reversed-phase C 18, 40° C., mobile phase 0.1% aqueous formic acid and acetonitrile, linear gradient 10% to 95% acetonitrile.
With `Cc1nc(N(C)C)sc1-c1ccnc(Nc2ccc(F)cc2)n1` [Example 849, 4-[2-(dimethylamine)-4-methyl-1,3-thiazol-5-yl]-N-(4-fluorophenyl)pyrimidine-2-amine], the logP was 1.99*. `COc1cc(Nc2nccc(-c3sc(N(C)C)nc3C)n2)cc(OC)c1OC` [Example 850, 4-[2-(dimethylamine)-4-methyl-1,3-thiazol-5-yl]-N-(3,4,5-trimethoxyphenyl)pyrimidine-2-amine]: the logP was 1.77*.
